pEC50, pKd: −log10 of the molar value. Read-outs that look alike come from different tables or passages of the source.
What was measured:
human HSP90α = target: T1, human HSP90α (Homo sapiens, UniProt P07900); test: biochemical; assay type: binding; settings: for pKd: competition assay, read-out: Measure KD against human HSP90α
T1 construct: purchased Stressgen SPP-776F

Her-2 in SkBr3 cells = test: Her-2 depletion in SkBr3 cells (pharmacodynamic marker of cellular efficacy); assay type: cell-based; settings: Homo sapiens, SK-BR-3; SkBr3 cells treated with the inhibitor overnight; read-out: PD (μM), pharmacodynamic EC50, Her-2 depletion
Method: FIG. 2. Cellular efficacy of pochoximes A1B5C1D1 (IC50). Depletion of Her-2 in SkBr3 cells were treated treated with the inhibitor for 18 h. […]

Row | Structure (SMILES) | pKd (human HSP90α) | pEC50 (human HSP90α) | EC50 (Her-2 in SkBr3 cells) [µM] | Kd (human HSP90α; Measure KD against human HSP90α (nM)) [nM]
1 | CC(=O)N[C@H]1/C=C/C[C@@H](C)OC(=O)c2c(O)cc(O)cc2CC(=NOCC(=O)N2CCCCC2)/C=C/C1 [As-15(6-R)] | 6.46 |  |  | 
2 | O=C1OCCC=CCCC=CC(=NOCC(=O)N2CCC(Cc3ccccc3)CC2)Cc2cc(O)cc(O)c21 [Compound A1B1C4D8] |  | 5.24 | > 10 | 
3 | CC1CC=CC(N)CC=CC(=NOCC(=O)N2CCCCC2)Cc2cc(O)cc(O)c2C(=O)O1 (stereo not drawn) [epi-aminopochoxime E] | 7.47 |  |  | 
4 | O=C1OCCC=CCCC=CC(=NOCC(=O)N(Cc2ccccc2)Cc2ccccc2)Cc2cc(O)cc(O)c21 [Compound A1B1C4D21] |  | 5.52 | > 10 | 
5 | O=C(CON=C1C=CCCC=CCCOC(=O)c2c(O)cc(O)cc2C1)NC1CCCCC1 [Compound A1B1C4D24] |  | 6.81 | ≤ 5 | 
6 | CCN(CC)C(=O)CON=C1C=CCCC=CCCOC(=O)c2c(O)cc(O)cc2C1 [Compound A1B1C4D18] |  | 6.71 | ≤ 1 | 
7 | CN1CCN(C(=O)CON=C2C=CCCC=CCCOC(=O)c3c(O)cc(O)cc3C2)CC1 [Compound A1B1C4D13] |  | < 5.00 |  | 
8 | C[C@@H]1C/C=C/[C@H](N)C/C=C/C(=NOCC(=O)N2CCCCC2)Cc2cc(O)cc(O)c2C(=O)O1 [aminopochoxime E] | 6.64 |  |  | 
9 | O=C(CON=C1C=CCCC=CCCOC(=O)c2c(O)cc(O)cc2C1)NCc1ccccc1 [Compound A1B1C4D22] |  | 7.24 | ≤ 1 | 
10 | COC(=O)CON=C1C=CCCC=CCCOC(=O)c2c(O)cc(O)cc2C1 [Compound A1B1C4D26] |  | 6.43 | ≤ 10 | 
11 | O=C1OCCC=CCCC=CC(=NOCC(=O)N2CCCCCC2)Cc2cc(O)cc(O)c21 [Compound A1B1C4D23] |  | 6.85 |  | 
12 | CCCC1CC=CCCC(C)=CC(=NOCC(=O)N2CCCCC2)Cc2cc(O)cc(O)c2C(=O)O1 (stereo not shown) [Compound A1B3C2D1] |  | 6.71 | ≤ 1 | 
13 | O=C1OCCC=CCCC=CC(=NOCC(=O)N2CCC(c3ccccc3)CC2)Cc2cc(O)cc(O)c21 [Compound A1B1C4D7] |  | 5.65 | > 10 | 
14 | CCCC1CC=CCCC=CC(=NOCC(=O)N2CCCCC2)Cc2cc(O)cc(O)c2C(=O)O1 (stereo not shown) [Compound A1B1C2D1] |  | 6.23 | > 10 | 
15 | CCN(CC)C(=O)CON=C1C=C(C)CCC=CCC(C)OC(=O)c2c(O)cc(O)cc2C1 (stereo not shown) [Compound A1B3C1D18] |  | 6.70 | ≤ 1 | 
16 | O=C1OCCC=CCCC=CC(=NOCC(=O)N2CCCC2)Cc2cc(O)cc(O)c21 [Compound A1B1C4D17] |  | 6.66 | ≤ 0.5 | 
17 | CC1CC=CC(NC(=O)CSC2OC(CO)C(O)C(O)C2O)CC=CC(=NOCC(=O)N2CCCCC2)Cc2cc(O)cc(O)c2C(=O)O1 (stereo not shown) [As-14(6-R)] |  |  |  | 90

Row | Structure (SMILES) | pKd (human HSP90α) | pEC50 (human HSP90α) | EC50 (Her-2 in SkBr3 cells) [µM] | Kd (human HSP90α; Measure KD against human HSP90α (nM)) [nM]
18 | CC1CCCC(C)N1C(=O)CON=C1C=CCCC=CCCOC(=O)c2c(O)cc(O)cc2C1 (stereo not shown) [Compound A1B1C4D6] |  | 6.62 | < 5 | 
19 | CCC1CCCCN1C(=O)CON=C1C=CCCC=CCCOC(=O)c2c(O)cc(O)cc2C1 (stereo not shown) [Compound A1B1C4D5] |  | 6.61 | < 1 | 
20 | CC(C)N(C(=O)CON=C1C=CCCC=CCCOC(=O)c2c(O)cc(O)cc2C1)C(C)C [Compound A1B1C4D20] |  | 6.79 | ≤ 1 | 
21 | CC1C=CC(C)N1C(=O)CON=C1C=CCCC=CCCOC(=O)c2c(O)cc(O)cc2C1 (stereo not shown) [Compound A1B1C4D16] |  | 6.92 | ≤ 1 | 
22 | CC1CC=CCCC=CC(=NOCC(=O)N2CCCCC2)Cc2cc(O)cc(O)c2C(=O)O1 (stereo not shown) [Compound A1B1C1D1] |  | 7.47 | ≤ 5 | 
23 | O=C1OCCC=CCCC=CC(=NOCC(=O)N2CCNCC2)Cc2cc(O)cc(O)c21 [Compound A1B1C4D12] |  | 6.19 | ≤ 5 | 
24 | O=C1OCCC=CCCC=CC(=NOCC(=O)N2CCSCC2)Cc2cc(O)cc(O)c21 [Compound A1B1C4D11] |  | 7.15 | ≤ 0.5 | 
25 | CC1CCCCN1C(=O)CON=C1C=CCCC=CCCOC(=O)c2c(O)cc(O)cc2C1 (stereo not shown) [Compound A1B1C4D2] |  | 6.05 |  | 
26 | O=C1OCCC=CCCC=CC(=NOCC(=O)N2CC=CCC2)Cc2cc(O)cc(O)c21 [Compound A1B1C4D9] |  | 7.66 | ≤ 0.5 | 
27 | CC1CCCN(C(=O)CON=C2C=CCCC=CCCOC(=O)c3c(O)cc(O)cc3C2)C1 (stereo not shown) [Compound A1B1C4D3] |  | 7.22 | ≤ 0.1 | 
28 | O=C1OCCC=CCCC=CC(=NOCC(=O)N2CC=CC2)Cc2cc(O)cc(O)c21 [Compound A1B1C4D15] |  | 6.89 | ≤ 1 | 
29 | CC1CN(C(=O)CON=C2C=CCCC=CCCOC(=O)c3c(O)cc(O)cc3C2)CC(C)O1 (stereo not shown) [Compound A1B1C4D14] |  | 6.47 | ≤ 5 | 
30 | CC1CCN(C(=O)CON=C2C=CCCC=CCCOC(=O)c3c(O)cc(O)cc3C2)CC1 [Compound A1B1C4D4] |  | 7.15 | ≤ 0.5 | 
31 | O=C1OCCC=CCCC=CC(=NOCC(=O)N2CCOCC2)Cc2cc(O)cc(O)c21 [Compound A1B1C4D10] |  | 6.91 | ≤ 0.5 | 
32 | CC(C)CN(CC(C)C)C(=O)CON=C1C=CCCC=CCCOC(=O)c2c(O)cc(O)cc2C1 [Compound A1B1C4D19] |  | 7.03 | ≤ 5 | 
33 | CCN(CC)C(=O)CON=C1C=CCCC=CCC(C)OC(=O)c2c(O)cc(O)cc2C1 (stereo not shown) [Compound A1B1C1D18] |  | 6.27 |  | 
34 | CCCN(CCC)C(=O)CON=C1C=CCCC=CCCOC(=O)c2c(O)cc(O)cc2C1 [Compound A1B1C4D25] |  | 6.94 | ≤ 1 | 

Now from value to compound:

Row | pKd (human HSP90α) | pEC50 (human HSP90α) | EC50 (Her-2 in SkBr3 cells) [µM] | Kd (human HSP90α; Measure KD against human HSP90α (nM)) [nM] | Structure (SMILES)
35 |  | 6.36 | ≤ 1 |  | C=CC1=CCCC=CC(=NOCC(=O)N2CCCCC2)Cc2c(Cl)c(O)cc(O)c2C(=O)OCC1 [Compound A2B1C8D1]
36 | 7.47 |  |  |  | C[C@@H]1C/C=C/[C@H](O)C/C=C/C(=NOCC(=O)N2CCCCC2)Cc2c(Cl)c(O)cc(O)c2C(=O)O1 [pochoxime E]
37 | 7.42 |  |  |  | C[C@@H]1C/C=C/[C@@H](O)C/C=C/C(=NOCC(=O)N2CCCCC2)Cc2c(Cl)c(O)cc(O)c2C(=O)O1 [epi-pochoxime E]
38 |  | 7.34 | ≤ 0.5 |  | CC1=CC(=NOCC(=O)N2CCCCC2)Cc2cc(O)cc(O)c2C(=O)OCCC=CCC1 [Compound A1B3C4D1]
39 | 7.85 |  |  |  | C[C@@H]1C/C=C/[C@@H](O)C/C=C/C(=NOCC(=O)N2CCCCC2)Cc2cc(O)cc(O)c2C(=O)O1 [epi-pochoxime F]
40 |  | 7.74 |  |  | O=C1OCCC=CC(O)CC=CC(=NOCC(=O)N2CCCCC2)Cc2c(Cl)c(O)cc(O)c21 (stereo not shown) [Compound A2B5C4D1]
41 |  | 7.68 | ≤ 0.5 |  | CC1C=CCCOC(=O)c2c(O)cc(O)cc2CC(=NOCC(=O)N2CCCCC2)C=CC1 (stereo not shown) [Compound A1B4C4D1]
42 |  | 6.81 | ≤ 1 |  | CC1C=CCC(C)OC(=O)c2c(O)cc(O)c(Cl)c2CC(=NOCC(=O)N2CCCCC2)C=CC1 (stereo not shown) [Compound A2B4C1D1]
43 |  | 6.77 | ≤ 5 |  | CC1C=CCCOC(=O)c2c(O)cc(O)c(Cl)c2CC(=NOCC(=O)N2CCCCC2)C=CC1 (stereo not shown) [Compound A2B4C4D1]
44 |  | 7.41 |  |  | CC1CC=CCCC=CC(=NOCC(=O)N2CCCCC2)Cc2c(Cl)c(O)cc(O)c2C(=O)O1 (stereo not shown) [Compound A2B1C1D1]
45 |  | 5.76 | ≤ 10 |  | CCCC1CC=CC(C)CC=CC(=NOCC(=O)N2CCCCC2)Cc2c(Cl)c(O)cc(O)c2C(=O)O1 (stereo not shown) [Compound A2B4C2D1]
46 |  | 6.70 | ≤ 1 |  | O=C1NCCC=CCCC=CC(=NOCC(=O)N2CCCCC2)Cc2c(Cl)c(O)cc(O)c21 [Compound A2B1C3D1]
47 |  | 7.02 | ≤ 5 |  | CCCC1CC=CCCC=CC(=NOCC(=O)N2CCCCC2)Cc2c(Cl)c(O)cc(O)c2C(=O)O1 (stereo not shown) [Compound A2B1C2D1]
48 |  | 6.05 | > 10 |  | CCCC1CC=CCCC(C)=CC(=NOCC(=O)N(CC)CC)Cc2c(Cl)c(O)cc(O)c2C(=O)O1 (stereo not shown) [Compound A2B3C2D18]
49 |  | 5.33 | > 10 |  | CCCC1CC=CCCC(C)=CC(=NOCC(=O)N(CC)CC)Cc2cc(O)cc(O)c2C(=O)O1 (stereo not shown) [Compound A1B3C2D18]
50 |  | 8.00 |  |  | CC1CC=CC(O)CC=CC(=NOCC(=O)N2CCCCC2)Cc2c(Cl)c(O)cc(O)c2C(=O)O1 (stereo not shown) [Compound A2B5C1D1]
51 |  | 5.76 | > 10 |  | CC1C=CCCCOC(=O)c2c(O)cc(O)c(Cl)c2CC(=NOCC(=O)N2CCCCC2)C=CC1 (stereo not shown) [Compound A2B4C5D1]
52 |  | 7.49 |  |  | CC1C=CCC(C)OC(=O)c2c(O)cc(O)cc2CC(=NOCC(=O)N2CCCCC2)C=CC1 (stereo not shown) [Compound A1B4C1D1]
53 |  | 7.10 |  |  | [N-]=[N+]=NCC1CC=CCCC=CC(=NOCC(=O)N2CCCCC2)Cc2c(Cl)c(O)cc(O)c2C(=O)O1 (stereo not shown) [Compound A2B1C7D1]
54 |  | 6.09 |  |  | CCCC1CC=CC(C)CC=CC(=NOCC(=O)N2CCCCC2)Cc2cc(O)cc(O)c2C(=O)O1 (stereo not shown) [Compound A1B4C2D1]
55 |  | 7.70 |  |  | CC1CC=CC(O)CC=CC(=NOCC(=O)N2CCCCC2)Cc2cc(O)cc(O)c2C(=O)O1 (stereo not shown) [Compound A1B5C1D1]
56 | 7.66 |  |  |  | C[C@@H]1C/C=C/[C@H](O)C/C=C/C(=NOCC(=O)N2CCCCC2)Cc2cc(O)cc(O)c2C(=O)O1 [pochoxime F]
57 | 7.66 |  |  |  | CC1CC=CCCC=CC(=NOCC(=O)N2CCCCC2)Cc2c(Cl)c(O)cc(O)c2C(=O)O1 (stereo not shown) [pochoxime D]
